Experimental data taken from US20210338842A1, “DUAL-MODALITY NANOPROBE TARGETING GLIOBLASTOMA AND PREPARATION METHOD THEREOF” (West China Hospital of Sichuan University, priority 2020, published 2021).

Test: Evaluation of restricted permeability of in vitro BBB model with fluorescein sodium (Transwell)
Assay type: in vitro ADME, mouse
Settings: NaFl 10 μg/mL in upper chamber, read-out: permeability coefficient Papp
Method: Experimental method: an in vitro blood-brain barrier model was established to evaluate the permeability of dual-modality nanoprobes. U87-MG cells and bEnd.3 cells were cultured in high glucose DMEM containing 10% fetal bovine serum and 1% penicillin/streptomycin at 37° C. and 5% CO2. A thin layer of collagen solution was evenly coated on the inner side of Transwell poly microporous lipid membrane, the membrane was placed on an ultra-clean table for about 30 min, and it was used after naturally dried. bEnd.3 cells were inoculated into the upper chamber of a 24-well Transwell at a density of 5×10^4 cells/well. Two days later, U87-MG cells were inoculated into the lower chamber of the upper chamber at a density of 1×10^5 cells/well, and the two kind of cells were continued to co-culture for one week.
The permeability of BBB in vitro was evaluated by fluorescein sodium, and a series of standard solutions of fluorescein sodium (NaFl) were prepared with PBS, with the concentrations of 0.05, 0.10, 0.15, 0.20, 0.25, 0.30, 0.35, 0.40, 0.45 and 0.50 μg/mL, respectively. The absorbance value was measured with a multifunctional ELISA reader (the excitation wavelength was set at 485 nm and the detection wavelength was 535 nm). Then the standard curve of NaFl concentration and absorbance value was made. […]

O=C1OC2(c3ccc(O)cc3Oc3cc(O)ccc32)c2ccccc21 [NaFl, Fluorescein sodium]
Papp A→B at 10 μg/mL (mouse, BBB model group, 30, 60, 90 min): 11.2 ± 0.73 ×10⁻⁶ cm/s
Papp at 10 μg/mL (small blank chamber (no cells)): 67.8 ×10⁻⁶ cm/s
